Our source for the Kd values is ChEMBL document CHEMBL3991601, “The target landscape of clinical kinase drugs” (Science, 2017).

Calls of active or inactive are those of the source. Cut-off read from the data, not from the text of the source, for most assays here: actives have a measured Kd and inactives only a lower limit. Where only a bound is given, the exact number is not on record here.

As a reminder, the Kd is the concentration at which binding is half-saturated.

The target in assay [1] is Serine/threonine-protein kinase MRCK beta (Homo sapiens, UniProt Q9Y5S2).
Sequence of Serine/threonine-protein kinase MRCK beta (Q9Y5S2 whole entry): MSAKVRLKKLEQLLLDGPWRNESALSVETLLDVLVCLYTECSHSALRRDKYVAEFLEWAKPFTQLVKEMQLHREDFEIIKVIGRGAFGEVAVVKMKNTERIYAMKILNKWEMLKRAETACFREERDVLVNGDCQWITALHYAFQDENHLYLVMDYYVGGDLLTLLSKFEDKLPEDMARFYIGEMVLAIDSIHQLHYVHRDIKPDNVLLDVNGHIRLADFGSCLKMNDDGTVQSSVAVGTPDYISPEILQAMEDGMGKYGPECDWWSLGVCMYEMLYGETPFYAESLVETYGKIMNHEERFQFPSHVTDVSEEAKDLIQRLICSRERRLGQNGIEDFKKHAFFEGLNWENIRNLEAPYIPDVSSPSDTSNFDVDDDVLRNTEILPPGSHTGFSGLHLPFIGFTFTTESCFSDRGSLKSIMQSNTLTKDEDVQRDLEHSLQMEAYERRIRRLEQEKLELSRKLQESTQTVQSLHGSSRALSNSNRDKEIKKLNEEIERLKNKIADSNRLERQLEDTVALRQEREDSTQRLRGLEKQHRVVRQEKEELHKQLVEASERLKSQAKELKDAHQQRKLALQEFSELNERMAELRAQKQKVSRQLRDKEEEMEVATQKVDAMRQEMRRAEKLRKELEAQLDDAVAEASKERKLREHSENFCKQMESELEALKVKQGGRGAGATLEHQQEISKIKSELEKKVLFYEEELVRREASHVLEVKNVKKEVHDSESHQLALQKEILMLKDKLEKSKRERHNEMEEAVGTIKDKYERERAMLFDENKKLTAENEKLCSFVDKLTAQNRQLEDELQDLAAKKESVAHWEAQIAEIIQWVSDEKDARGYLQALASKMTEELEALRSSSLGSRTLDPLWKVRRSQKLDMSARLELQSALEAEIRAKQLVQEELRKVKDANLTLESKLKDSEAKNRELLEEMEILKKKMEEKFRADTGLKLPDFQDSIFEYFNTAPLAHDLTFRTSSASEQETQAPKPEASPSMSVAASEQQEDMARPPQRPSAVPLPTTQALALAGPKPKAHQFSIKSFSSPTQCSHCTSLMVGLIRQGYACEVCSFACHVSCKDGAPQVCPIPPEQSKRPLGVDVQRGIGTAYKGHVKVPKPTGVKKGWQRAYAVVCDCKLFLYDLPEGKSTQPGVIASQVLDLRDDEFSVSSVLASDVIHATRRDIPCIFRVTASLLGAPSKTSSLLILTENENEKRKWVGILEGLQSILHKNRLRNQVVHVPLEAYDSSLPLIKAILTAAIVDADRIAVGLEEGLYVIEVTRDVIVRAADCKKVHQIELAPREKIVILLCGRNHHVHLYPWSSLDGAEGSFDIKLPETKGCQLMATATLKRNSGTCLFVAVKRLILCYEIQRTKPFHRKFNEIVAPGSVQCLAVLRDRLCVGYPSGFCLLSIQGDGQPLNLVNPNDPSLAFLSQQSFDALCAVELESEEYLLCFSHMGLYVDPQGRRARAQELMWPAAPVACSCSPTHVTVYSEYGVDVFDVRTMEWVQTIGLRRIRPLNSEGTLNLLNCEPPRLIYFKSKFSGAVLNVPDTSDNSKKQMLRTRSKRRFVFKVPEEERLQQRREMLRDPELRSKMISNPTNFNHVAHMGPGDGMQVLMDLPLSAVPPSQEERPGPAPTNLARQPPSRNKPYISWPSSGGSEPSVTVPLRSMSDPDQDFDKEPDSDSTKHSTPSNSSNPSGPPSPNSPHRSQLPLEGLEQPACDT
In assay [2] the target is Maternal embryonic leucine zipper kinase (Homo sapiens, UniProt Q14680).
Sequence of Maternal embryonic leucine zipper kinase (Q14680 whole entry): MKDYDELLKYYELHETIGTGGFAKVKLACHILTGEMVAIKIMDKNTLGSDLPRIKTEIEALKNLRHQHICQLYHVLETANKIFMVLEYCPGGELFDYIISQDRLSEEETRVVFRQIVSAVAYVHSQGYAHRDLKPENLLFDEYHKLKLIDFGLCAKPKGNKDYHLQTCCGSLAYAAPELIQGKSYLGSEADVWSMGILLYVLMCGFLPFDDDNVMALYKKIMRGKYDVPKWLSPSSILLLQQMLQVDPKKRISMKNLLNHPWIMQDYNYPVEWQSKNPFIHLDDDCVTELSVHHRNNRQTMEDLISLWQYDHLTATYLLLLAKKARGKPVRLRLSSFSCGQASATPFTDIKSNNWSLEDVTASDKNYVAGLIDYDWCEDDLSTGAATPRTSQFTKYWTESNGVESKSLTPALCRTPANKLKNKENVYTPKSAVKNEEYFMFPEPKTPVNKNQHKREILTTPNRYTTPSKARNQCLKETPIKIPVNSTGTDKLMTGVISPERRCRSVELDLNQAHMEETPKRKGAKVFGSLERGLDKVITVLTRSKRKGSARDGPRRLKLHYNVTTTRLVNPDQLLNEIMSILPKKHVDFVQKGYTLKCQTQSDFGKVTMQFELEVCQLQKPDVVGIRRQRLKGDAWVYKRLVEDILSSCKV
Assay [3] deals with T1, Serine/threonine-protein kinase LATS1 (Homo sapiens, UniProt O95835).
T1 sequence (O95835 whole entry): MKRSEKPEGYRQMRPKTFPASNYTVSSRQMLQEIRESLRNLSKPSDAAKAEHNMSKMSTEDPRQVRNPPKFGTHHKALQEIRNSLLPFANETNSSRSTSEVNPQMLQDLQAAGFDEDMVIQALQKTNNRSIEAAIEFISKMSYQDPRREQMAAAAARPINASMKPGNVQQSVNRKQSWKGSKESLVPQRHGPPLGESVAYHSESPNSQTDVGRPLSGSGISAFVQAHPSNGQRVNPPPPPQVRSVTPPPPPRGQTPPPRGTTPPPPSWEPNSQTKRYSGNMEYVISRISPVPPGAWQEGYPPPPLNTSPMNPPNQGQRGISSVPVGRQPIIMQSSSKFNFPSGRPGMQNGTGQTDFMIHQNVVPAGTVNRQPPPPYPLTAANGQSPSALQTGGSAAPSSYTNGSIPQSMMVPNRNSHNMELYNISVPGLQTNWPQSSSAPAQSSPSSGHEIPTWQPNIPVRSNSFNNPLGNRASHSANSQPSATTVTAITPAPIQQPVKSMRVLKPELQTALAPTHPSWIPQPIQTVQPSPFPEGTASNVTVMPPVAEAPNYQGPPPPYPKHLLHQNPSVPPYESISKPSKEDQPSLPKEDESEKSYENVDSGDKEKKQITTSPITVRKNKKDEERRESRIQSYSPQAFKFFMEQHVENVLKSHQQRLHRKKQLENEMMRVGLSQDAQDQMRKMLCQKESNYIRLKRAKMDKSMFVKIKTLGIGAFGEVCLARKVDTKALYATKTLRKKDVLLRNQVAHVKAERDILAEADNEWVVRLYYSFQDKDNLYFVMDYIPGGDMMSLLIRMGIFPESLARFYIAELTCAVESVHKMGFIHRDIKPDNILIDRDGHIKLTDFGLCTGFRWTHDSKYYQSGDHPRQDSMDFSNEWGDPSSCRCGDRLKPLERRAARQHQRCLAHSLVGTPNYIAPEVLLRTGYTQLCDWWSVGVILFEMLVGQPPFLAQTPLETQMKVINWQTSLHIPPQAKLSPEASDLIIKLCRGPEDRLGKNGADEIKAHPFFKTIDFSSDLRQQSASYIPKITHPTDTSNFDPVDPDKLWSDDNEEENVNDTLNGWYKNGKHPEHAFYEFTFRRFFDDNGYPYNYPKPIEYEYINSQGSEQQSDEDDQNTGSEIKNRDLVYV

Assay [4] addresses Ribosomal protein S6 kinase alpha-4 (Homo sapiens, UniProt O75676).
Assay [5] has as its target T2, Serine/threonine-protein kinase Nek3 (Homo sapiens, UniProt P51956).
T2 sequence (P51956 whole entry): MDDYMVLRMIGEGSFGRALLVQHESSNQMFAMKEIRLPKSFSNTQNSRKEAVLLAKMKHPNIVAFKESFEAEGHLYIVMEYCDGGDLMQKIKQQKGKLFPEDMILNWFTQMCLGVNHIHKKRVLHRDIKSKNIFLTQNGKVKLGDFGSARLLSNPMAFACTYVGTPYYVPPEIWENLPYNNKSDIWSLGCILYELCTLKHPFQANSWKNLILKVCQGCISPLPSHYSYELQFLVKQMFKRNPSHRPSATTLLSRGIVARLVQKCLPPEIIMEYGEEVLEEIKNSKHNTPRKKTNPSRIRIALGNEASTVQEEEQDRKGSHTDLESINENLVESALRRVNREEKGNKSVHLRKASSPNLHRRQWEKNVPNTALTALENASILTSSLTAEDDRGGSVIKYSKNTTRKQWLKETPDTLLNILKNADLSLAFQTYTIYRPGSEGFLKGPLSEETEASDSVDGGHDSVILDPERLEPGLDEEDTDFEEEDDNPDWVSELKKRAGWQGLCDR

The target in assay [6] is Dual specificity mitogen-activated protein kinase kinase 1 (Homo sapiens, UniProt Q02750).
Sequence of Dual specificity mitogen-activated protein kinase kinase 1 (Q02750 whole entry): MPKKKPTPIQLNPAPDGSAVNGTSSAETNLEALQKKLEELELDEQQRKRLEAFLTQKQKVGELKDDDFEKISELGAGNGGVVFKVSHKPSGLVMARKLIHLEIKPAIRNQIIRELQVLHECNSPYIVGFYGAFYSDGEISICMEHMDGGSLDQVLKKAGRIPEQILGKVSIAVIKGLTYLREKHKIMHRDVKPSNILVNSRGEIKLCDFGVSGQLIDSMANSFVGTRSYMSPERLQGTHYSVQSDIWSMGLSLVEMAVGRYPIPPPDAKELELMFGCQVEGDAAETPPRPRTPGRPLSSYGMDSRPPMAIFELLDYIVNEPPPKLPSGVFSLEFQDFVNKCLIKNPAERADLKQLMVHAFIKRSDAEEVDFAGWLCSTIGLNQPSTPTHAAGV
In assay [7] the target is T3, ATP-dependent RNA helicase DDX42 (Homo sapiens, UniProt Q86XP3).
T3 sequence (Q86XP3 whole entry): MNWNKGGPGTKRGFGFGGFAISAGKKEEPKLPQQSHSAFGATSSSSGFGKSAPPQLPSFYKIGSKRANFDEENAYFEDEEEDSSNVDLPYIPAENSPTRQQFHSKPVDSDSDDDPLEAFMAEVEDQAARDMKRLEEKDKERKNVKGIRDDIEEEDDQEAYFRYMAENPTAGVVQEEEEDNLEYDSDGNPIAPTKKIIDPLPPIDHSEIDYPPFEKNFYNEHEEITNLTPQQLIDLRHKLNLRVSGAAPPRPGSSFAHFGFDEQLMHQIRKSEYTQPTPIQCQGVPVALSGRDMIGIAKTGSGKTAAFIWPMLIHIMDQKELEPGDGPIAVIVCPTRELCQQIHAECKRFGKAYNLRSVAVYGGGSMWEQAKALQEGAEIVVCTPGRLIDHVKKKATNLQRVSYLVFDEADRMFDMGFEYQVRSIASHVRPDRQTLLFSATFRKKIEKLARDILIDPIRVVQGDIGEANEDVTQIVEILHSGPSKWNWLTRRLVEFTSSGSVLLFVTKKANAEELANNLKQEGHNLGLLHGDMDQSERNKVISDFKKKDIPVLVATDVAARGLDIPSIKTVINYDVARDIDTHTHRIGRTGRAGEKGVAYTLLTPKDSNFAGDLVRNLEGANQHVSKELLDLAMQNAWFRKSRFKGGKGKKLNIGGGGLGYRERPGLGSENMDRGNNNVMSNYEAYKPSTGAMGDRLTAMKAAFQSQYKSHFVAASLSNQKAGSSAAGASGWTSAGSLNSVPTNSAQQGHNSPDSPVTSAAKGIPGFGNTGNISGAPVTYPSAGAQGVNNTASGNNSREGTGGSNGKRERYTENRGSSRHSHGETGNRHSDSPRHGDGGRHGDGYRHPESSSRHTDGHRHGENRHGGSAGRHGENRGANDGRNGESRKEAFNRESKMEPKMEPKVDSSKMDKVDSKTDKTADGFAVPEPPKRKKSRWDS

For assay [8], the target named is Atypical kinase COQ8A, mitochondrial (Homo sapiens, UniProt Q8NI60).
Sequence of Atypical kinase COQ8A, mitochondrial (Q8NI60 whole entry): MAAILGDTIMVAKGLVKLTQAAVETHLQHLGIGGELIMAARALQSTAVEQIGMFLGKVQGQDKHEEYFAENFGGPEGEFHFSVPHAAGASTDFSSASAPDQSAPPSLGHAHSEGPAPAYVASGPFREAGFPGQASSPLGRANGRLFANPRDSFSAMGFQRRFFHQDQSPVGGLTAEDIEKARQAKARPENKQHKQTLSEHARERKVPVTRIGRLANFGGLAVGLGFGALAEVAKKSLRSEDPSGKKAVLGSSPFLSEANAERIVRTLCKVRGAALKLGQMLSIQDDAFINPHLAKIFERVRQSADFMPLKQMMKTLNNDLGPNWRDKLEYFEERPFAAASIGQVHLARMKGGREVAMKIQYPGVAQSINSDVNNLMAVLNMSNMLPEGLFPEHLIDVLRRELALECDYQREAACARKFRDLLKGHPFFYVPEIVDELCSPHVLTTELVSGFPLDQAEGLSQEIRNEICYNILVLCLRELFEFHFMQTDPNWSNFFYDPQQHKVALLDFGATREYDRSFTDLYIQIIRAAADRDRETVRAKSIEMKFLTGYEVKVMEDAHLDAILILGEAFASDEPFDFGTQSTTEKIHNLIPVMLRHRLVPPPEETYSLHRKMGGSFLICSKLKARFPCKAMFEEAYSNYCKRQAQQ
Note: in the data inactive means no Kd found up to 30 µM.

Sequence of Ribosomal protein S6 kinase alpha-4 (O75676 whole entry): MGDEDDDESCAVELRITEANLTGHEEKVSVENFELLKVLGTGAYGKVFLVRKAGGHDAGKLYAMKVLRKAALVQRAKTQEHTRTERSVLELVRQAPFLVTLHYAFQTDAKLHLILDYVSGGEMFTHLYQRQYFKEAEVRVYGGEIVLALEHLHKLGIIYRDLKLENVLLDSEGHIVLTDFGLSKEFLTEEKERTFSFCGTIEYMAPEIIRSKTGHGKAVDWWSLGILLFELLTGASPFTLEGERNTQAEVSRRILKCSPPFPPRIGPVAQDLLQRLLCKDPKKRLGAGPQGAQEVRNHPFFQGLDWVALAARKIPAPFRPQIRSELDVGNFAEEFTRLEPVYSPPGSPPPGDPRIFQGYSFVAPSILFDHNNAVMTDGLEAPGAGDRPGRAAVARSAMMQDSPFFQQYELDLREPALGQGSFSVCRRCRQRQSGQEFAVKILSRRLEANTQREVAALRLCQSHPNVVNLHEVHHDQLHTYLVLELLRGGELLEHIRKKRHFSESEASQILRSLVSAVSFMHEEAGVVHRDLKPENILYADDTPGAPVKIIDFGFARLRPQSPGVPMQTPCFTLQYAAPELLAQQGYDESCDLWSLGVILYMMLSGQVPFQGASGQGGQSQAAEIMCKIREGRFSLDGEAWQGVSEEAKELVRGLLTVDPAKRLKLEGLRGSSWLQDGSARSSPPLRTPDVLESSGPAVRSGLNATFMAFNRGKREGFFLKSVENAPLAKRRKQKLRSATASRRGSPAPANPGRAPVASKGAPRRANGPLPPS

`CC[C@H](Nc1ncnc2[nH]cnc12)c1nc2cccc(F)c2c(=O)n1-c1ccccc1` [IDELALISIB]: the Kd in assay [1], in assay [2], in assay [3], in assay [4], in assay [5] and in assay [6] was > 30 µM (inactive) throughout. Also, the Kd in assay [7] and in assay [8] was > 30 µM (inactive) each time.
`C[C@@H](c1ccc2nccn2c1)n1nnc2ncc(-c3cnn(C)c3)nc21` [SAVOLITINIB]: the Kd in assay [1], in assay [2], in assay [3], in assay [4], in assay [5] and in assay [6] was > 30 µM (inactive) throughout. Also, the Kd in assay [7] and in assay [8] was > 30 µM (inactive) in each case.
For the molecule `CN1N=C(N)c2cn([C@@H]3O[C@H](COP(=O)(O)O)[C@@H](O)[C@H]3O)c3ncnc1c23` [TRICIRIBINE PHOSPHATE], the Kd in assay [1], in assay [2], in assay [3], in assay [4], in assay [5] and in assay [6] was > 30 µM (inactive) throughout. For the same molecule, the Kd in assay [7] and in assay [8] was > 30 µM (inactive) each time.
On to `CNC(=O)CN1CCC(Oc2cc3c(Nc4cccc(Cl)c4F)ncnc3cc2OC)CC1` [SAPITINIB], for which the Kd in assay [1], in assay [2], in assay [3], in assay [4], in assay [5] and in assay [6] was > 30 µM (inactive) in each case. Moreover, the Kd in assay [7] and in assay [8] was > 30 µM (inactive) in each case.
For `O=C(c1ccc(F)c(F)c1Nc1ccc(I)cc1F)N1CC(O)([C@@H]2CCCCN2)C1` [COBIMETINIB], the Kd in assay [1] was > 30 µM (inactive); in assay [2], > 30 µM (inactive); in assay [3], > 30 µM (inactive); in assay [4], > 30 µM (inactive); in assay [5], > 30 µM (inactive); in assay [6] it was 0.309 µM (active). Also, the Kd in assay [7] and in assay [8] was > 30 µM (inactive) throughout.
For the molecule `CCS(=O)(=O)N1CC(CC#N)(n2cc(-c3ncnc4[nH]ccc34)cn2)C1` [BARICITINIB], the Kd in assay [1], in assay [2], in assay [3], in assay [4], in assay [5] and in assay [6] was > 30 µM (inactive) in each case. Also, the Kd in assay [7] and in assay [8] was > 30 µM (inactive) in each case.
Take `Cc1nc(N)sc1-c1ccnc(Nc2ccc(N3CCOCC3)cc2)n1` [CYC-116]: the Kd in assay [1] was > 30 µM (inactive); in assay [3], 0.066 µM (active); in assay [5], 0.83 µM (active); in assay [6], > 30 µM (inactive); in assay [7], > 30 µM (inactive); in assay [8] it was 65.3 µM (active).
`Cc1cc(Nc2cc(N3CCN(C)CC3)nc(/C=C/c3ccccc3)n2)n[nH]1` [ENMD-2076]: the Kd in assay [1], in assay [3], in assay [4], in assay [5], in assay [6] and in assay [7] was > 30 µM (inactive) throughout. The Kd in assay [8] is > 30 µM (inactive).
Turning to `Cc1ccc(NC(=O)c2ccc(CN3CC[C@H](N(C)C)C3)c(C(F)(F)F)c2)cc1Nc1nccc(-c2cncnc2)n1` [BAFETINIB], the Kd in assay [1], in assay [2], in assay [3], in assay [4], in assay [5] and in assay [6] was > 30 µM (inactive) throughout. Besides, the Kd in assay [7] and in assay [8] was > 30 µM (inactive) throughout.
In the case of `Cc1ccc(-n2nc(C(C)(C)C)cc2NC(=O)NCc2cc(F)ccc2Oc2ccc3c(cnn3CCO)c2)cc1` [PEXMETINIB], the Kd in assay [1], in assay [2], in assay [3], in assay [4], in assay [5] and in assay [6] was > 30 µM (inactive) each time. Further, the Kd in assay [7] and in assay [8] was > 30 µM (inactive) in each case.
As to `COc1ccc(-c2ccc3c(N4CCOC[C@@H]4C)nc(N4CCOC[C@@H]4C)nc3n2)cc1CO` [AZD-8055], the Kd in assay [1], in assay [2], in assay [3], in assay [4], in assay [5] and in assay [6] was > 30 µM (inactive) in each case. Also, the Kd in assay [7] and in assay [8] was > 30 µM (inactive) each time.
Take `C=CC(=O)N1CCC(Oc2cc3c(Nc4ccc(Cl)c(Cl)c4F)ncnc3cc2OC)CC1` [POZIOTINIB]: the Kd in assay [1], in assay [2], in assay [3], in assay [4], in assay [5] and in assay [6] was > 30 µM (inactive) in each case. Besides, in assay [8], the Kd was > 30 µM (inactive).
Regarding `O=C1NC(=O)/C(=C/c2ccc3nccc(-c4ccncc4)c3c2)S1` [GSK-1059615], the Kd in assay [1] is > 30 µM (inactive); in assay [2], > 30 µM (inactive); in assay [3], > 30 µM (inactive); in assay [4] it was 0.499 µM (active); in assay [5], > 30 µM (inactive); in assay [6] it was 18.5 µM (active). Moreover, the Kd in assay [8] was > 30 µM (inactive).
